Consider 14 compounds from US7074789B2, “Kinase inhibitors” (Amgen Inc., priority 1999, dated 2006).

What all share (assay type): biochemical
Experiment [1] concerns the target T1, PDGFRB (Homo sapiens, UniProt P09619).
T1 construct: Kinases are expressed as either kinase domains or full length constructs; made in house
Kind of experiment: Kinase inhibition assay (33P transfer), PDGFRB. Particulars: read-out: PDGFRB-1.

For experiment [2], the target named is T2, Itk (Homo sapiens, UniProt Q08881).
T2 construct: Kinases are expressed as either kinase domains or full length constructs; made in house
T2 sequence (Q08881 1-620): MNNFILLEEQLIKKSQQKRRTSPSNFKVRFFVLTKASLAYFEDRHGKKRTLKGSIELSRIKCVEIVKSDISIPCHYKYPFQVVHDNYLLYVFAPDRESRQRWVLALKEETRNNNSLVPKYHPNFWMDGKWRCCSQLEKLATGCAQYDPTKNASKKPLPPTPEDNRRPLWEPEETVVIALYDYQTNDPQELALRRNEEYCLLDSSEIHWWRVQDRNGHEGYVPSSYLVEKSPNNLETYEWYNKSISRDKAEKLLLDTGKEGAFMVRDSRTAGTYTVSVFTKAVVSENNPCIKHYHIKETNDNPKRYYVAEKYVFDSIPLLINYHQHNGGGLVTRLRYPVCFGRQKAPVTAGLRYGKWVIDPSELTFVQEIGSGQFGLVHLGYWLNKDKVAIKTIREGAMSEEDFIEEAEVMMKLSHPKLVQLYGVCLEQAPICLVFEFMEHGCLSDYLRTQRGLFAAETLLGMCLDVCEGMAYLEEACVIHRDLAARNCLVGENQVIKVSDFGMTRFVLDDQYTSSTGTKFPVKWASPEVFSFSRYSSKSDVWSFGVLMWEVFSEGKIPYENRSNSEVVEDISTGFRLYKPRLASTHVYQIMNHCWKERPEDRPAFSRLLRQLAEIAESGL
Kind of experiment: Kinase inhibition assay (33P transfer), Itk. As to conditions: read-out: Itk-1. In outline:
(§1)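 Read-out: scintillation counts of 33P moved from ATP onto synthetic peptide polymer coated on the well surface, after washing with 0.5% phosphoric acid. Enzymes were tagged (GST or polyHistidine) and came from bacterial or insect-cell expression. IC50 marks 50% loss of incorporated label.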

The target in experiment [3] is T3, Lck (Homo sapiens, UniProt P06239).
T3 construct: Kinases are expressed as either kinase domains or full length constructs; made in house
The experiment can be described thus: Kinase inhibition assay (33P transfer), Lck. As to conditions: read-out: Lck-1. In outline: (§2)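 Radiometric readout: 33P incorporated into surface-bound poly(Glu,Tyr) 4:1 or poly(Arg,Ser) 3:1 is counted by liquid scintillation after a 0.5% phosphoric acid wash. Enzymes were GST or polyHis fusions (kinase domain or full length) from E. coli or High Five insect cells.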

Experiment [4] concerns the target T4, c-Met (Homo sapiens, UniProt P08581).
T4 construct: Kinases are expressed as either kinase domains or full length constructs; made in house
The experiment can be described thus: Kinase inhibition assay (33P transfer), c-Met. As to conditions: Table 2, kinase inhibition class; read-out: Met-1. In outline:
as §1

The target of experiment [5] is T5, ErbB2 (Homo sapiens, UniProt P04626).
T5 construct: Kinases are expressed as either kinase domains or full length constructs; made in house
T5 sequence (P04626 23-1255, species assumed): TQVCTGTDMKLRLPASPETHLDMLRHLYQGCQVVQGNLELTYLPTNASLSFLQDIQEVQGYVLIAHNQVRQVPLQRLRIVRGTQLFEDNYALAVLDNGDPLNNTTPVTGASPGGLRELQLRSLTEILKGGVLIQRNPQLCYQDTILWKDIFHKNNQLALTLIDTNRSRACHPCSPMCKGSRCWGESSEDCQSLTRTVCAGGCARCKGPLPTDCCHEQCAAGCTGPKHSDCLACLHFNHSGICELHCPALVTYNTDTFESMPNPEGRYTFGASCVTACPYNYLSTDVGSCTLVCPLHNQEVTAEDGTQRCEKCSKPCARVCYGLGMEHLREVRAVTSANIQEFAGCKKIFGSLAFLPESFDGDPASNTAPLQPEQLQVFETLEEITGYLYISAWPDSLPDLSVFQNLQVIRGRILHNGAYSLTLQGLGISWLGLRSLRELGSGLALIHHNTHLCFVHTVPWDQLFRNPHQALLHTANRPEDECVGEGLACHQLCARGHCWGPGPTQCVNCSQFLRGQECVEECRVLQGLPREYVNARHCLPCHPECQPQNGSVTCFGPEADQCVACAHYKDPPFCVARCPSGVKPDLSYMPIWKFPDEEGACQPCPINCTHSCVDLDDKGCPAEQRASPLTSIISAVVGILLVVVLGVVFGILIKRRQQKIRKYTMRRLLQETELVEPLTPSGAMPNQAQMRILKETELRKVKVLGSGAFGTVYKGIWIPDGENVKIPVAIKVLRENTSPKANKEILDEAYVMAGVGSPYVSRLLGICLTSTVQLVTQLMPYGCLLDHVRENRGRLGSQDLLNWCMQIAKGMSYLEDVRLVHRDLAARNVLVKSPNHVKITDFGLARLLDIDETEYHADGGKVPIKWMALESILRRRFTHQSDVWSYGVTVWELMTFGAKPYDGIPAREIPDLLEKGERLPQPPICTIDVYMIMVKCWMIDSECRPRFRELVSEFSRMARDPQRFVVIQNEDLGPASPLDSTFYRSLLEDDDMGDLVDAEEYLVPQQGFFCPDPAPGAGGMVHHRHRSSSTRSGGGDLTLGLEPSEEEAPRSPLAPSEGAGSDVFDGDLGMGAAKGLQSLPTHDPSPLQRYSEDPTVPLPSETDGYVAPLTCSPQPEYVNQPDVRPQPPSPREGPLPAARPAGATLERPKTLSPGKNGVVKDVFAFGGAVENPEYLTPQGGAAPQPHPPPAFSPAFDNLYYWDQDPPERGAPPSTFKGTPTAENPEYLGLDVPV
The experiment can be described thus: Kinase inhibition assay (33P transfer), ErbB2. Particulars: read-out: ErbB2-2. In a few lines: as §1

The target in experiment [6] is T6, IGFR-1 (Homo sapiens, UniProt P08069).
T6 construct: Kinases are expressed as either kinase domains or full length constructs; made in house
Kind of experiment: Kinase inhibition assay, IGFR-1 (Table 2). As to conditions: Table 2, kinase inhibition class.

Experiment [7] addresses T7, Kdr (Homo sapiens, UniProt P35968).
T7 construct: Kinases are expressed as either kinase domains or full length constructs; made in house
Kind of experiment: Kinase inhibition assay (33P transfer), Kdr. Particulars: read-out: KDR-1. In outline:
as §2

Experiment [8] addresses T8, AKT (Homo sapiens, UniProt Q9Y243).
T8 construct: Kinases are expressed as either kinase domains or full length constructs; made in house
The experiment can be described thus: Kinase inhibition assay (33P transfer), AKT. As to conditions: Table 2, kinase inhibition class; read-out: AKT3-1. In a few lines:
as §2

The target in experiment [9] is T9, EGFR (Homo sapiens, UniProt P00533).
T9 construct: Kinases are expressed as either kinase domains or full length constructs; made in house
T9 sequence (P00533 25-1210, species assumed): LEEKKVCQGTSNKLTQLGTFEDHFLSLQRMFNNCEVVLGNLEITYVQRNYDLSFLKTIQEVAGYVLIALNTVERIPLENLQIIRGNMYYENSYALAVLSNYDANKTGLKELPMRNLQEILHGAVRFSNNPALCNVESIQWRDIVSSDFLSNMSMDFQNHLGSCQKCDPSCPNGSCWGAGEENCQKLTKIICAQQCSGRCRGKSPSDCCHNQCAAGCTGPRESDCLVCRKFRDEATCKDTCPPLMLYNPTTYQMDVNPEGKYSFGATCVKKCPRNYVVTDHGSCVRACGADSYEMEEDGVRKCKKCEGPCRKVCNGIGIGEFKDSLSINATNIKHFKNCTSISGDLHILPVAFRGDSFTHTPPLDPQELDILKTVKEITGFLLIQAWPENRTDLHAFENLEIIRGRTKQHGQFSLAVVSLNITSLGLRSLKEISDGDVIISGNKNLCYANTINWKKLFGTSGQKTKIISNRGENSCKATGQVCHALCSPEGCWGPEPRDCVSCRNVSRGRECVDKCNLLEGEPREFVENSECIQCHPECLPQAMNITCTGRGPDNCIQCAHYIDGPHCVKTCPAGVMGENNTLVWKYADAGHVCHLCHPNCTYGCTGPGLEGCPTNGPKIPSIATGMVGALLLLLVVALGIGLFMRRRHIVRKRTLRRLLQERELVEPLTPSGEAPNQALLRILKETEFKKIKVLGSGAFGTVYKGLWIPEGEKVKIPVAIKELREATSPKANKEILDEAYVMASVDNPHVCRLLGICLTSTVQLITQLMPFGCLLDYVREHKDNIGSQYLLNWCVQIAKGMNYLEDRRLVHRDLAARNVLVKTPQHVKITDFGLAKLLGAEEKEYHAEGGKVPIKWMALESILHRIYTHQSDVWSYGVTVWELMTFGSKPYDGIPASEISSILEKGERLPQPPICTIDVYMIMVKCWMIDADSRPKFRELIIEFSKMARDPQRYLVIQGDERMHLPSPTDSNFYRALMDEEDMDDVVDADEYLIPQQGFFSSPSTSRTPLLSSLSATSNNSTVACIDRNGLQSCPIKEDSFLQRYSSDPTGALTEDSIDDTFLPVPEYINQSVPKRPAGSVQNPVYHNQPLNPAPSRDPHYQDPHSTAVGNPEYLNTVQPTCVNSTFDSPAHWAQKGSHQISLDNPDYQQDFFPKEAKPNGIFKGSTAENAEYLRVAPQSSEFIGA
Kind of experiment: Kinase inhibition assay (33P transfer), EGFR. As to conditions: Table 2, kinase inhibition class; read-out: EGFR-1. In a few lines: as §1

For experiment [10], the target named is T10, Zap-70 (Homo sapiens, UniProt P43403).
T10 construct: Kinases are expressed as either kinase domains or full length constructs; made in house
T10 sequence (P43403 1-619): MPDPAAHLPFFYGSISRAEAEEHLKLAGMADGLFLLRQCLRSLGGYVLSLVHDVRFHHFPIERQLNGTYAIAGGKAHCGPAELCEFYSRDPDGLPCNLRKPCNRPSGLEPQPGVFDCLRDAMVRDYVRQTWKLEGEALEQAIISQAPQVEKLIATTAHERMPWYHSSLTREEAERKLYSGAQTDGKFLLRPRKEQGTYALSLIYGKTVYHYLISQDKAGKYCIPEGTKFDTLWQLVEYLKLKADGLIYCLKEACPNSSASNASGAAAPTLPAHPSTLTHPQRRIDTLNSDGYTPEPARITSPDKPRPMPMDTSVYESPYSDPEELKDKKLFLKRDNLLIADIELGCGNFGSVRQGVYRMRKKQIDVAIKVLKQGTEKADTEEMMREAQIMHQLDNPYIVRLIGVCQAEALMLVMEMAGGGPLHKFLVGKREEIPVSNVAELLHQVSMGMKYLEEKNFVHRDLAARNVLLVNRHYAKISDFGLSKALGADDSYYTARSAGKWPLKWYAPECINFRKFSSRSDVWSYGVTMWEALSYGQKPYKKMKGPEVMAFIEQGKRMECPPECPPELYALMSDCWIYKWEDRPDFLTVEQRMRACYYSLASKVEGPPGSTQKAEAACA
The experiment can be described thus: Kinase inhibition assay (33P transfer), Zap-70. Particulars: read-out: Zap-1. In outline: as §2

T7 sequence (P35968 20-1356, species assumed): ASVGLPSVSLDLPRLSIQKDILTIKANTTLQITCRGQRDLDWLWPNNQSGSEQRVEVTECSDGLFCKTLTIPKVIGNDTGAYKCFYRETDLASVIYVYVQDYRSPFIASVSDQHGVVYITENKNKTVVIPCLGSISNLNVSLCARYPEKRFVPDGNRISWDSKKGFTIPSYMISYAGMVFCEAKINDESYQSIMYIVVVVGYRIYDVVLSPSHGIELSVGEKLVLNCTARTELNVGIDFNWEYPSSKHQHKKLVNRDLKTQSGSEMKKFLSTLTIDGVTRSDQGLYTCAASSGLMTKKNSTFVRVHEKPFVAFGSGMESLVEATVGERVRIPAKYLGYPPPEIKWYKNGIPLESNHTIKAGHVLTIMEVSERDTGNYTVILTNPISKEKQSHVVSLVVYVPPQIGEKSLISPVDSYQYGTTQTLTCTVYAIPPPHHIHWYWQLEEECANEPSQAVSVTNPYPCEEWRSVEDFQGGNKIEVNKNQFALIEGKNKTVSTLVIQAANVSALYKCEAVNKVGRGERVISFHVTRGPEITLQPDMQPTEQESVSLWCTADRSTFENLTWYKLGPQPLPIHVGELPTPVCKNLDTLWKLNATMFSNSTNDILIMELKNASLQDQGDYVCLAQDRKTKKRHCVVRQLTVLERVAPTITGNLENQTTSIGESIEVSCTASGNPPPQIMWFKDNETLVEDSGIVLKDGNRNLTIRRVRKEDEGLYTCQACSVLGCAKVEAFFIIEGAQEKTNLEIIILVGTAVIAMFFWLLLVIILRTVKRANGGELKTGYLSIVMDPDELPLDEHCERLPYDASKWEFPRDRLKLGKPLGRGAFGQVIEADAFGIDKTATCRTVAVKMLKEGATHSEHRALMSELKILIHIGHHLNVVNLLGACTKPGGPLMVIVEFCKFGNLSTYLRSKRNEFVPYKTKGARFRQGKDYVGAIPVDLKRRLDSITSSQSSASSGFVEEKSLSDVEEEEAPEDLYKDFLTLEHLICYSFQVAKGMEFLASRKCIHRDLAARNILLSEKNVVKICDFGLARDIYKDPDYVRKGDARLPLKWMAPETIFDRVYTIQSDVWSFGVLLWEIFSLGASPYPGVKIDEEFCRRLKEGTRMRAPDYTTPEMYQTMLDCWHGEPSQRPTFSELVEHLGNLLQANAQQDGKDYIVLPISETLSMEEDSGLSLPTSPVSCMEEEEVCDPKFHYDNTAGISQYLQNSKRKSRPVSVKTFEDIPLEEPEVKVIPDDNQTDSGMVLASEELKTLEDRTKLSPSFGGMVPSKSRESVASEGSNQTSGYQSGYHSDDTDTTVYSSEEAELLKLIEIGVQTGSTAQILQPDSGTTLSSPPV
T1 sequence (P09619 33-1106, species assumed): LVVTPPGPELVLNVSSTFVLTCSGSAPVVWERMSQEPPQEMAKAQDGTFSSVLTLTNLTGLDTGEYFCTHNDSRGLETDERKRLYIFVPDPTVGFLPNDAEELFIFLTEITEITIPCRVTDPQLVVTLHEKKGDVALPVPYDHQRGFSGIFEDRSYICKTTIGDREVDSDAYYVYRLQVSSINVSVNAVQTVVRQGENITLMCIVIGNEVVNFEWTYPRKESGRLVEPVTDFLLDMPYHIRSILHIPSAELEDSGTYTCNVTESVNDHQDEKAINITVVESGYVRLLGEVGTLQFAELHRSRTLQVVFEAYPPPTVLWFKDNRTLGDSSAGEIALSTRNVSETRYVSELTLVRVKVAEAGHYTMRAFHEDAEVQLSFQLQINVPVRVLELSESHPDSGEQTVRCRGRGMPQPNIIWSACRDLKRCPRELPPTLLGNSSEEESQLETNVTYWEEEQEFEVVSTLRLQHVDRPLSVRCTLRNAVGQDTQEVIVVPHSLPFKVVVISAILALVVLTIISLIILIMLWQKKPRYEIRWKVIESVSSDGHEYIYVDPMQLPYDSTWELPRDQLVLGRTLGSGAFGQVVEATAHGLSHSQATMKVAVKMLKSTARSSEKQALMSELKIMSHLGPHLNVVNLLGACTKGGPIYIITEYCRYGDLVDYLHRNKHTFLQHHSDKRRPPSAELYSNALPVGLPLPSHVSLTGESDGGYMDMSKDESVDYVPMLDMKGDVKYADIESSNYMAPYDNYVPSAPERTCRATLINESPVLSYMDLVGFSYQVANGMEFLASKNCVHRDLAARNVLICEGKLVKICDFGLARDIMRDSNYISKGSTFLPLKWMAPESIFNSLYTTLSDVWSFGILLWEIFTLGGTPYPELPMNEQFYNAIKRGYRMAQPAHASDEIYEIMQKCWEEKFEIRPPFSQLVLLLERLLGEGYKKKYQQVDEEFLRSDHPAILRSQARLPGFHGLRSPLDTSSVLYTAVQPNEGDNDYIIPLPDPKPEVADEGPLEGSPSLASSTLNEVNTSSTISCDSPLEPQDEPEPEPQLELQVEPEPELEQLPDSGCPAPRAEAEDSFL

For `COc1ccc(Nc2ncnc(NCCCN3CCCCC3C)n2)cc1OC` (centres unmarked) [Compound 782], the IC50 in [1] is 6.21 to 9.06 µM; in experiment [2], above 11.6 µM; in experiment [3] it was above 11.6 µM; in experiment [4] it was above 11.6 µM; in experiment [5], above 11.6 µM; in experiment [6] it was above 11.6 µM. In addition, the IC50 in [7], in experiment [8], in experiment [9] and in experiment [10] was above 11.6 µM in each case.
In the case of `CC(=O)c1ccc(Nc2ncnc(Nc3ccc4c(cnn4Cc4ccccc4)c3)n2)cc1` [Compound 730], the IC50 in experiment [1] fell in the range of 0.919 to 5.51 µM; in experiment [2], 0.919 to 5.51 µM; in experiment [3], 5.51 to 8.04 µM; in experiment [4], 0.919 to 5.51 µM; in experiment [5], 0.919 to 5.51 µM; in experiment [6] it was 0.919 to 5.51 µM. For the same compound, the IC50 is 0.919 to 5.51 µM in [7], 5.51 to 8.04 µM in experiment [8], below 0.919 µM in experiment [9] and 0.919 to 5.51 µM in [10].
Consider `COc1cc(Br)ccc1Nc1nc2ccccc2n1-c1ncnc(Nc2cc(OC)c(OC)c(OC)c2)n1` [Compound 1052], for which the IC50 in [1] was 4.15 to 6.05 µM; in experiment [2], above 7.78 µM; in [3], above 7.78 µM; in experiment [4], above 7.78 µM; in experiment [5], 4.15 to 6.05 µM; in experiment [6] it was above 7.78 µM. Besides, the IC50 was 0.692 to 4.15 µM in experiment [7], above 7.78 µM in experiment [8], above 7.78 µM in experiment [9] and above 7.78 µM in experiment [10].
`CCc1ccc(Nc2nc3ccccc3n2-c2ncnc(Nc3cc(OC)c(OC)c(OC)c3)n2)cc1` [Compound 1048]: the IC50 in [1] is 7.03 to 9.04 µM; in [2] it was above 9.04 µM; in experiment [3], 0.804 to 4.82 µM; in [4], above 9.04 µM; in [5] it was 0.804 to 4.82 µM; in experiment [6] it was above 9.04 µM. In addition, the IC50 in experiment [7] is below 0.804 µM; in experiment [8], above 9.04 µM; in experiment [9], below 0.804 µM; in [10] it was above 9.04 µM.
Consider `CN(c1cccc(Cl)c1)c1ncnc(Nc2cccc(CNC(=O)O[C@@H]3CCOC3)c2)n1` [Compound 721], for which the IC50 was 0.879 to 5.28 µM in experiment [1]; above 9.89 µM in experiment [2]; 0.879 to 5.28 µM in experiment [3]; 0.879 to 5.28 µM in experiment [4]; 0.879 to 5.28 µM in experiment [5]; 7.69 to 9.89 µM in experiment [6]. In addition, the IC50 in experiment [7] is 0.879 to 5.28 µM; in [8], above 9.89 µM; in experiment [9], below 0.879 µM; in experiment [10], above 9.89 µM.
In the case of `COc1ccc(Nc2ncnc(NCCCOC(C)C)n2)cc1OC` [Compound 785], the IC50 in experiment [1], in experiment [2], in [3], in experiment [4], in [5] and in [6] was above 13 µM throughout. In addition, the IC50 in experiment [7], in [8], in [9] and in experiment [10] was above 13 µM in each case.
Regarding `COc1cc(Nc2ncnc(Nc3cc(-c4ccc(C(=O)NCCc5ccccc5)cc4)n[nH]3)n2)cc(OC)c1OC` [Compound 1006], the IC50 in experiment [1] is above 7.94 µM; in experiment [2], 4.24 to 6.18 µM; in experiment [3], 0.706 to 4.24 µM; in experiment [4], below 0.706 µM; in experiment [5], 4.24 to 6.18 µM; in experiment [6], below 0.706 µM. The IC50 in experiment [7], in [8], in experiment [9] and in experiment [10] was above 7.94 µM each time.
`Nc1nc2ccccc2n1-c1ncnc(Nc2cccc(CC(=O)O)c2)n1` [Compound 544]: the IC50 was 1.11 to 6.64 µM in experiment [1]; above 12.5 µM in experiment [2]; above 12.5 µM in experiment [3]; above 12.5 µM in experiment [4]; above 12.5 µM in experiment [5]; below 1.11 µM in [6]. The IC50 in experiment [7] is below 1.11 µM; in experiment [8], above 12.5 µM; in [9], above 12.5 µM; in experiment [10], above 12.5 µM.
Take `Cc1ccc2c(c1)CCCN2c1ncnc(Nc2ccc3ncsc3c2)n1` [Compound 773]: the IC50 in experiment [1] was below 1.07 µM; in experiment [2], 1.07 to 6.41 µM; in [3], 1.07 to 6.41 µM; in [4], below 1.07 µM; in [5], 1.07 to 6.41 µM; in experiment [6], 1.07 to 6.41 µM. For the same compound, the IC50 in [7] was 1.07 to 6.41 µM; in [8] it was above 12 µM; in experiment [9] it was 1.07 to 6.41 µM; in [10], above 12 µM.
On to `c1ccc(Cn2ncc3cc(Nc4ncnc(Nc5ccc(N6CCOCC6)cc5)n4)ccc32)cc1` [Compound 729], for which the IC50 lay within 0.836 to 5.02 µM in experiment [1]; 5.02 to 7.31 µM in experiment [2]; 0.836 to 5.02 µM in experiment [3]; 0.836 to 5.02 µM in experiment [4]; 0.836 to 5.02 µM in [5]; 0.836 to 5.02 µM in experiment [6]. Moreover, the IC50 was 0.836 to 5.02 µM in [7], 7.31 to 9.4 µM in experiment [8], below 0.836 µM in [9] and 5.02 to 7.31 µM in experiment [10].
Turning to `Brc1cccc(Nc2ncnc(Nc3cccc(Br)c3)n2)c1` [Compound 539], the IC50 in experiment [1] lay in the range of 8.31 to 10.7 µM; in [2], 8.31 to 10.7 µM; in experiment [3], 8.31 to 10.7 µM; in experiment [4] it was 8.31 to 10.7 µM; in experiment [5], 0.95 to 5.7 µM; in experiment [6], 5.7 to 8.31 µM. In addition, the IC50 in [7] is 0.95 to 5.7 µM; in experiment [8], 8.31 to 10.7 µM; in experiment [9], below 0.95 µM; in experiment [10], 0.95 to 5.7 µM.
`O=C(O)Cc1cccc(Nc2ncnc(-n3c(NCc4ccccn4)nc4ccccc43)n2)c1` [Compound 533]: the IC50 in experiment [1] is 0.884 to 5.3 µM; in experiment [2], above 9.95 µM; in experiment [3] it was above 9.95 µM; in experiment [4], above 9.95 µM; in experiment [5] it was above 9.95 µM; in experiment [6], above 9.95 µM. The IC50 was below 0.884 µM in [7], above 9.95 µM in experiment [8], above 9.95 µM in experiment [9] and above 9.95 µM in experiment [10].
Regarding `CN(c1cccc(Cl)c1)c1ncnc(Nc2ncccn2)n1` [Compound 757], the IC50 in [1], in experiment [2], in experiment [3], in [4], in [5] and in experiment [6] was above 14.3 µM in each case. Moreover, the IC50 was above 14.3 µM in experiment [7], above 14.3 µM in experiment [8], below 1.27 µM in experiment [9] and above 14.3 µM in experiment [10].
Regarding `CCC(O)CNc1ncnc(Nc2ccc(OC)c(OC)c2)n1` (centres unmarked) [Compound 788], the IC50 in experiment [1] is 11 to 14.1 µM; in experiment [2] it was above 14.1 µM; in experiment [3] it was above 14.1 µM; in experiment [4], above 14.1 µM; in experiment [5], above 14.1 µM; in experiment [6], above 14.1 µM. The IC50 in experiment [7], in experiment [8], in experiment [9] and in experiment [10] was above 14.1 µM throughout.
